This is an account of results in patent US20120010241A1, “HSP90 INHIBITING INDAZOLE DERIVATIVES, COMPOSITIONS CONTAINING SAME AND USE THEREOF” (SANOFI, priority 2009, published 2012).

One data set deals with Hsp82 (Saccharomyces cerevisiae, UniProt P02829). In words: Hsp82/ATPase test (PK/LDH coupled spectrophotometric method; malachite green method also described). The conditions noted are these: 1 μM Hsp82, 250 μM ATP, 37° C., absorbance at 340 nm. It counts as biochemical. The method, then: The biochemical activity of the compounds can in particular be evaluated by means of the “Hsp82/ATPase” test described below:
The inorganic phosphate released during the hydrolysis of ATP by the ATPase activity of Hsp82 is quantified by the malachite green method. In the presence of this reagent, formation of the inorganic phosphate-molybdate-malachite green complex, which absorbs at a wavelength of 620 nm, occurs.
The products to be evaluated are incubated in a reaction volume of 30 μl, in the presence of 1 μM Hsp82 and of 250 μM of substrate (ATP) in a buffer composed of 50 mM Hepes-NaOH (pH 7.5), 1 mM DTT, 5 mM MgCl2 and 50 mM KCl at 37° C. for 60 min. In parallel, an inorganic phosphate range of between 1 and 40 μM is made up in the same buffer. […] The inorganic phosphate concentration of each sample is then calculated from the standard curve. The ATPase activity of Hsp82 is expressed as concentration of inorganic phosphate produced in 60 minutes. The effect of the various products tested is expressed as percentage inhibition of the ATPase activity.
The formation of ADP due to the ATPase activity of Hsp82 was used to develop another method for evaluating the enzyme activity of this enzyme by application of an enzymatic coupling system involving pyruvate kinase (PK) and lactate dehydrogenase (LDH). In this kinetic-type spectrophotometric method, PK catalyses the formation of ATP and of pyruvate from phosphoenol pyruvate (PEP) and the ADP produced by Hsp82. The pyruvate formed, which is a substrate for LDH, is subsequently converted to lactate in the presence of NADH. In this case, the decrease in the NADH concentration, measured through the decrease in absorbance at the wavelength of 340 nm, is proportional to the concentration of ADP produced by Hsp82.
The products tested are incubated in a reaction volume of 100 μl of buffer composed of 100 mM Hepes-NaOH (pH 7.5), 5 mM MgCl2, 1 mM DTT, 150 mM KCl, 0.3 mM NADH, 2.5 mM PEP and 250 μM ATP. This mixture is preincubated at 37° C. for 30 minutes before the addition of 3.77 units of LDH and 3.77 units of PK. The reaction is initiated by addition of the product to be evaluated, in varying concentrations, and of Hsp82, at the concentration of 1 μM. The enzymatic activity of Hsp82 is then measured continuously, in a microplate reader, at 37° C., at the wavelength of 340 nm. The initial rate of the reaction is obtained by measuring the slope of the tangent to the origin of the curve recorded. The enzymatic activity is expressed in μM of ADP formed per minute. The effect of the various products tested is expressed as 50% inhibitory concentration (1050) with respect to the ATPase activity, according to the codification below: […]

Data set [1] has as its system Her2 expression in SKBr3 cells. Briefly: phenotypic SKBr3/HER2 cell test (Her2 expression at the cell surface, flow cytometry). Type of data set: cell-based. As to conditions: Homo sapiens, SK-BR-3, incubation for 24 h, anti-Her2 antibody coupled to PE, FACS. The method, then: The cellular activity of the compounds can in particular be evaluated by means of the phenotypic “SKBr3/HER2” cell test described below:
The SKBr3 […] adenocarcinoma cells, overexpressing the Her2 tyrosine kinase receptor, originate from the ATCC (HTB-30) and are cultured in McCoy's 5A medium supplemented with 10% FBS and 1% L-glutamine.
The cells are seeded in 12-well plates at a proportion of 125 000 cells per well in 1 ml of complete medium. The following day, the products are added at varying concentrations. After incubation for 24 h, the cells are trypsinized, washed with PBS and incubated with 100 ng of anti-Her2 antibody coupled to PE (phycoerythrin) (BD 340552) for 30 minutes at 4° C. in the dark. The fluorescence due to the expression of the Her2 receptor at the surface of the cells is then read using a FACS Calibur flow cytometer (Becton-Dickinson). The percentage inhibition of Her2 expression as a function of the concentrations of product tested is fitted by the nonlinear regression technique (XLfit, equation 205) in order to measure the IC50 for each product.
(In flow cytometry, cells or beads pass a laser one at a time.)

Chain of Hsp82 (P02829 whole entry): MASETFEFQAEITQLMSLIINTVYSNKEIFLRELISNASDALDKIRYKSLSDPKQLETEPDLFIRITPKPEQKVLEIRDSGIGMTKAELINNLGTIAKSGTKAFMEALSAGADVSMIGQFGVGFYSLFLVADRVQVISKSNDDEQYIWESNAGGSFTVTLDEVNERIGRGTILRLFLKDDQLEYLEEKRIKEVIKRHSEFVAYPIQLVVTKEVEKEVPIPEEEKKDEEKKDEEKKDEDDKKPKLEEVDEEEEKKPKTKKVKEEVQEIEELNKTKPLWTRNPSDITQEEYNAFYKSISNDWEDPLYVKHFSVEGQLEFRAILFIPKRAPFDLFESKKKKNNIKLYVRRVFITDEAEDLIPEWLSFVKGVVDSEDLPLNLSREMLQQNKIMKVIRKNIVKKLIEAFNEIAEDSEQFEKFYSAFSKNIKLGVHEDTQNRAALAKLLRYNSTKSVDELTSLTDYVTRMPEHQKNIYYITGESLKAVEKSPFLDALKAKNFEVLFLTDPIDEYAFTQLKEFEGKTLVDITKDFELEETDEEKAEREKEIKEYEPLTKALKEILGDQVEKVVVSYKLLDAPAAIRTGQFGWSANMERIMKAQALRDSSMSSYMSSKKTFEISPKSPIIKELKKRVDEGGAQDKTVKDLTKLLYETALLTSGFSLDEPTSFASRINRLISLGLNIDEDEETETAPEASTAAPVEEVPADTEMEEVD

As a reminder, the IC50 is the midpoint of a concentration-inhibition curve. A lower IC50 goes with greater potency in that assay. Regarding `Cc1nn(-c2ccc(C(N)=O)c(N[C@H]3CC[C@H](O)CC3)c2)c2cccc(-c3cnc4ccccc4c3)c12` [Example 1, 2-(trans-4-hydroxycyclohexylamino)-4-(3-methyl-4-quinolin-3-ylindazol-1-yl)benzamide], the IC50 (on Hsp82; in data set [1]) was less than 1 µM throughout.

As a reminder, the melting point is the temperature, or range, at which the solid turns liquid. Take `Cc1nn(-c2ccc(C(N)=O)c(NC3CC4CCC3O4)c2)c2cccc(-c3cnc4ccccc4c3)c12` (stereo not drawn) [Example 14, 4-(3-methyl-4-quinolin-3-ylindazol-1-yl)-2-[exo-(7-oxabicyclo[2.2.1]hept-2-yl)amino]benzamide]: the melting point was in the range of 170 to 172 °C. In addition, in data set [1], the half-maximal inhibitory concentration (IC50) was less than 1 µM.

As to `Cc1nn(-c2ccc(C(N)=O)c(N[C@H]3CC[C@H](O)CC3)c2)c2cccc(-c3nc4ccc(F)cc4[nH]3)c12` [Example 12, 4-[4-(6-fluoro-1H-benzimidazol-2-yl)-3-methylindazol-1-yl]-2-(trans-4-hydroxycyclohexylamino)benzamide], the half-maximal inhibitory concentration (IC50) (at Hsp82; in data set [1]) was less than 1 µM in each case.
